Laboratory results: PubChem BioAssay (NCI)
Several values for one entry are separate records, joined by “and”; a condition that tells them apart may be missing. Equal values may be shown once.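 Assay format: 96-well plates, 48-hour exposure. The concentration for 50% growth inhibition is given as GI50. The concentration for full growth arrest is given as TGI.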 Where a SMILES comes first, the peptide text is derived from it. Bridges are numbered along the chain shown (N, C = ends).

How the values were obtained:
Assay in all cases: NCI anticancer screen, dose series, 48 h
SF-539 CNS = test system: SF-539 CNS
M14 melanoma = test system: M14 melanoma
SNB-19 CNS = test system: SNB-19 CNS
RPMI-8226 leukemia = test system: RPMI-8226 leukemia
HCT-15 colon = test system: HCT-15 colon
HCC-2998 colon = test system: HCC-2998 colon
SF-295 CNS = test system: SF-295 CNS
NCI-H522 lung = test system: NCI-H522 lung
SW-620 colon = test system: SW-620 colon
SF-268 CNS = test system: SF-268 CNS

Structure (SMILES) | TGI (SF-539 CNS) | TGI (M14 melanoma) | TGI (SNB-19 CNS) | TGI (RPMI-8226 leukemia) | TGI (HCT-15 colon) | TGI (HCC-2998 colon) | TGI (SF-295 CNS) | TGI (NCI-H522 lung) | TGI (SW-620 colon) | TGI (SF-268 CNS) | GI50 (SF-539 CNS) | GI50 (SNB-19 CNS) | GI50 (RPMI-8226 leukemia) | GI50 (SF-295 CNS) | GI50 (NCI-H522 lung) | GI50 (SW-620 colon)
Cc1cc2ccccc2n2c1nc1ccc(O)cc12 | > 10 µM | > 10 µM | > 10 µM | > 10 µM | > 10 µM | > 10 µM | > 10 µM | > 10 µM | > 10 µM | > 10 µM | – | – | – | – | – | –
COC1(C)CCC(OS(C)(=O)=O)CO1 (stereo unspecified) | > 100 µM | > 100 µM | > 100 µM | > 100 µM | > 100 µM | > 100 µM | > 100 µM | > 100 µM | > 100 µM | > 100 µM | – | – | – | – | – | –
CN1COCN=C1NC#N | > 100 µM | > 100 µM | > 100 µM | > 100 µM | > 100 µM | > 100 µM | > 100 µM | > 100 µM | > 100 µM | > 100 µM | – | – | – | – | – | –
CC(Cl)(CCC(Cl)C(C)(C)Cl)C(=O)CBr (stereo unspecified) | 29.8 µM | 21.8 µM | > 85.5 µM | 7.99 µM | 21.7 µM | 30.9 µM | 55.4 µM | 3.94 µM | 4.96 µM | 31.7 µM | – | – | – | – | – | –
Cc1c(C(=O)O)sc2nc[nH]c(=O)c12 | > 100 µM | > 100 µM | > 100 µM | > 100 µM | > 100 µM | > 100 µM | > 100 µM | > 100 µM | > 100 µM | > 100 µM | – | – | – | – | – | –
C/C(CC(O)(C(F)(F)F)C(F)(F)F)=N\O | > 10 µM | > 10 µM | > 10 µM | > 10 µM | > 10 µM | > 10 µM | > 10 µM | > 10 µM | > 10 µM | > 10 µM | – | – | – | – | – | –
COC(=O)C1CCC(=O)NCCCCC(NC(=O)C(N)CC(=O)O)C(=O)N1 (stereo not drawn) (H-Asp-Lys-Glu-OMe; lactam 2-3; configuration not given here) | > 100 µM | > 100 µM | > 100 µM | > 100 µM | > 100 µM | > 100 µM | > 100 µM | > 100 µM | > 100 µM | > 100 µM | – | – | – | – | – | –
CC1=NN(c2ccccc2)C(=O)/C1=C\c1c(C)[nH]n(-c2ccccc2)c1=O | > 100 µM | > 100 µM | > 100 µM | 83.3 µM | > 100 µM | > 100 µM | > 100 µM | > 100 µM | > 100 µM | > 100 µM | – | – | – | – | – | –
COc1ccc(C2C3=C(COC3=O)Oc3cc4c(cc32)OCO4)cc1OC (stereo unspecified) | 2.31 µM | > 100 µM | > 100 µM | > 23.5 µM | > 100 µM | 4.85 µM | 24 µM | 2.19 µM | > 100 µM | > 100 µM | – | – | – | – | – | –
O=C(Oc1cncc(Cl)c1)c1cc2ccccc2sc1=O | 57.9 µM | > 100 µM | > 100 µM | > 100 µM | > 100 µM | > 100 µM | > 100 µM | 47.3 µM | > 100 µM | > 100 µM | – | – | – | – | – | –
CCOC(=O)C1=C(N2CCCC2)C(=O)C(C(=O)OCC)C1 (stereo unspecified) | > 100 µM | > 100 µM | > 100 µM | > 100 µM | > 100 µM | > 100 µM | > 100 µM | > 100 µM | > 100 µM | > 100 µM | – | – | – | – | – | –
CN1Cc2ccccc2C2(COc3ccccc3C2=O)C1 (stereo unspecified) | > 100 µM | > 100 µM | > 100 µM | > 100 µM | > 100 µM | > 100 µM | > 100 µM | > 100 µM | > 100 µM | > 100 µM | – | – | – | – | – | –
CCN(CC)CC[n+]1ccc2c(C)c3[nH]c4ccccc4c3c(C)c2c1 | 1.66 µM and 5.78 µM and 2.12 µM | 3.28 µM | 1.41 µM and 1.48 µM and 1.33 µM | 4.87 µM and 0.536 µM and 2.95 µM | 80.5 µM and 110 µM | 1.52 µM and 1.43 µM and 1.97 µM | 6.9 µM and 15.1 µM and 6.83 µM | 1.36 µM and 2.58 µM and 1.87 µM | 5.65 µM and 13.2 µM and 6.96 µM | 1.07 µM and 1.28 µM and 1.64 µM | 0.921 µM | 0.251 µM | < 0.0471 µM | 1.28 µM | 0.247 µM | 0.654 µM
C/C(N=NS(=O)(=O)c1c(C)cc(C)cc1C)=C1\C=CC=CN1O | > 100 µM | > 100 µM | > 100 µM | > 100 µM | > 100 µM | > 100 µM | > 100 µM | > 100 µM | > 100 µM | > 100 µM | – | – | – | – | – | –
COC(=O)CCCc1nc2ccccc2nc1N=Nc1ccccc1 | > 100 µM | 76.7 µM | > 100 µM | 98.8 µM | > 100 µM | > 100 µM | > 100 µM | 68.5 µM | > 100 µM | > 100 µM | – | – | – | – | – | –
CC(C)(C)c1cc(C(C)(C)C)c(SC2OC(CO)C(O)C(O)C2O)c(O)c1O (stereo unspecified) | 12.7 µM | > 100 µM | 24.5 µM | 76.1 µM | 18.8 µM | 18.2 µM | 28.3 µM | 20.9 µM | 49.9 µM | 20.4 µM | – | – | – | – | – | –
